TGI and GI50 data for 25 compounds are collected here from PubChem BioAssay (NCI).

Where “and” joins values, the source holds several entries; their conditions need not be identical. Identical values can stand only once.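 Tested at 5 concentrations; 48 h exposure; 96-well plates; endpoints linearly interpolated, else capped at highest concentration. The concentration for 50% growth inhibition is given as GI50. At the TGI there is no net growth.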

Assay in all cases: NCI tumour cell line growth inhibition, 48 h
For test [1], the system named is DU-145 prostate.
The test system of test [2] is HCC-2998 colon.
The test system of test [3] is T-47D breast.
The test system of test [4] is MCF7 breast.
Test [5] has as its system M14 melanoma.
In test [6] the test system is HOP-62 NSCLC.
Test [7] relates to OVCAR-4 ovarian.
In test [8] the test system is SN12C renal.
The test system of test [9] is LOX IMVI melanoma.
Test [10] has as its system SK-MEL-2 melanoma.
In test [11] the test system is OVCAR-3 ovarian.
In test [12] the test system is NCI-H460 lung.

On to `O=C(O)CSCC(=O)Nc1ccc2cccc3c2c1CC3`, for which the TGI in test [1], in test [2], in [3], in test [4], in [5] and in [6] was > 100 µM in each case. For the same compound, the TGI in test [7], in [8], in [9], in [10] and in test [11] was > 100 µM in each case.

Consider `COC(=O)NCCc1[nH]nc2c1C(=O)C=C(Nc1ccccc1)C2=O`, for which the TGI in test [1] is > 100 µM; in test [2] it was > 100 µM; in test [3] it was > 100 µM; in [4], 31.2 µM; in test [5], > 100 µM; in [6], > 100 µM. Besides, the TGI in [12] was > 100 µM; in test [7] it was 72 µM; in [8] it was > 100 µM; in test [9], 75.8 µM; in test [10] it was 99.4 µM; in [11], > 100 µM.

As for `C/C(=N\Nc1ccc([N+](=O)[O-])cc1[N+](=O)[O-])c1ccc2ccccc2n1`, the TGI in test [1], in [3], in test [4], in [5], in [12] and in [8] was > 100 µM each time. In addition, the TGI in test [10] is > 100 µM.

With `OCCN(CCO)c1ccc2c(C(F)(F)F)cc(C(F)(F)F)nc2n1`, the TGI in [1], in [2], in test [3], in test [4], in [5] and in test [6] was > 100 µM each time. The TGI in [12], in [7], in test [8], in [9], in test [10] and in [11] was > 100 µM in each case.

For `CC(=O)Oc1ccc2c(c1)c1c(=O)oc(N(C)C)nc1n2Cc1ccccc1`, the TGI was > 100 µM in test [1]; > 100 µM in test [2]; > 92.9 µM in test [3]; > 100 µM in test [4]; > 100 µM in [5]; > 100 µM in test [6]. The TGI in [12], in test [7], in test [8], in test [9], in test [10] and in [11] was > 100 µM each time.

`NNC(=O)c1c(Cl)c(Cl)c(Cl)c(Cl)c1-c1nc2ccccc2[nH]1`: the TGI was 38.3 µM in test [1]; 22.5 µM in test [2]; 24 µM in [3]; 23 µM in test [4]; 23.6 µM in test [5]; 21.4 µM in [6]. In addition, the TGI in test [12] was 31 µM; in [8], > 100 µM; in test [9] it was 30.3 µM; in [10], 29.4 µM; in test [11], 24.4 µM.

For `COc1ccc(Cc2nc3cc(C(F)(F)F)ccc3n2CCCN(C)C)cc1`, the TGI is 40.4 µM in [1]; 13.1 µM in test [2]; 32.3 µM in test [3]; 32.3 µM in [4]; 28.7 µM in test [5]; > 100 µM in test [6]. In addition, the TGI in [12] worked out at 46.7 µM; in [7], 80.4 µM; in [9], 40 µM; in test [10] it was 36.1 µM; in [11], 46.1 µM.

Turning to `CC(=O)Nc1ncc(Sc2ccccc2C(=O)O)s1`, the TGI in test [1], in test [3], in test [4], in test [5], in test [6] and in test [12] was > 100 µM in each case. For the same compound, the TGI in [8], in test [9], in test [10] and in test [11] was > 100 µM throughout.

As to `CC1C(c2ccc3c(c2)OCO3)c2cc3c(cc2OC1N1CCCC1)OCO3` (centres undefined), the TGI is > 100 µM in test [1]; 49.1 µM in test [2]; > 100 µM in test [3]; > 100 µM in test [4]; 57.6 µM in [5]; > 100 µM in [6]. The TGI is > 100 µM in test [12]; > 100 µM in test [8]; > 100 µM in [9]; 90.4 µM in [10]; > 100 µM in [11].

On to `CCOP(=O)(/C=C\n1cnc2c(=O)n(C(C)=O)c(N)nc21)OCC`, for which the TGI in [1], in test [3], in test [4], in test [5], in test [6] and in [12] was > 100 µM in each case. Besides, the TGI in [7], in test [8], in [9] and in [11] was > 100 µM throughout.

As for `CC(C)OP(=O)(CN(C)/C(F)=N\C(F)(F)F)OC(C)C`, the TGI in test [1], in test [2], in test [3], in test [4], in test [5] and in [6] was > 100 µM each time. In addition, the TGI in test [12], in test [8], in test [9], in [10] and in [11] was > 100 µM each time.

Take `COc1cc([C@@H]2c3cc4c(cc3[C@@H](NCCNCCO)[C@H]3COC(=O)[C@H]23)OCO4)cc(OC)c1O`: the GI50 was 1820 nM and 3880 nM in test [1]; 3390 nM and 1580 nM in [2]; 183 nM and 87.6 nM in test [4]; 934 nM and 331 nM in [8]; 7.28 µM and 2.31 µM in test [11]. Besides, the TGI in [1] was 9.83 µM and > 33.9 µM; in test [2], 32.2 µM and 12.1 µM; in [3], 11.9 µM and 8.93 µM; in [4] it was > 36.7 µM; in test [5] it was 28.1 µM and 20.2 µM; in test [6] it was 5.18 µM and 6.52 µM. For the same compound, the TGI is 4.49 µM and 3.1 µM in test [12]; 47.4 µM and > 84.8 µM in test [7]; 24.1 µM and 3.19 µM in [8]; > 26.9 µM and 4.89 µM in test [10]; > 66.9 µM and 11.1 µM in test [11].

`CC(=O)O[C@H]1C[C@]2(C)C(CCC3O[C@@]32C)[C@@]2(CC(c3ccoc3)OC2O)[C@@H]1C` (some centres undefined): the TGI in test [1], in test [2], in [3], in [4], in test [5] and in [12] was > 100 µM in each case. Also, the TGI in test [7], in test [8], in test [9], in [10] and in test [11] was > 100 µM in each case.

For `c1ccc(C2SCC3=Nc4ccccc4CN32)cc1` (centres undefined), the TGI in test [1], in test [2], in test [3], in test [4], in test [5] and in [6] was > 100 µM throughout. The TGI in test [12] is > 100 µM; in test [7] it was > 100 µM; in test [8], > 100 µM; in test [9], > 100 µM; in [11] it was 22.5 µM.

In the case of `O=C(/C=C/c1ccc(O)c(O)c1)OCCc1cccc2ccccc12`, the TGI came out at 18.6 µM in [1]; 23.4 µM in test [2]; 42.3 µM in test [3]; 25.7 µM in test [4]; 20.3 µM in [5]; 29.9 µM in [12]. The TGI in [7] is 23.9 µM; in test [8] it was 7.96 µM; in [10], 10.2 µM; in test [11] it was 14.1 µM.

For the compound `N#CCC(=O)Nn1c(CC#N)nnc1Cc1ccccc1`, the TGI in [1], in test [2], in test [3], in test [4], in [5] and in test [6] was > 100 µM throughout. Also, the TGI in test [12], in test [10] and in [11] was > 100 µM each time.

Regarding `O=C(c1cc(Cl)cc(Cl)c1)N(C(=S)OC12CC3CC(CC(C3)C1)C2)c1ccccc1`, the TGI in [1] was > 100 µM; in test [2], > 100 µM; in test [3] it was > 100 µM; in [4], > 100 µM; in test [5] it was 56.7 µM; in test [6], > 100 µM. The TGI in test [12] is > 100 µM; in test [7], > 100 µM; in test [8], > 100 µM; in test [10] it was 41.6 µM; in [11] it was > 100 µM.

Regarding `O=C1c2cc3ccccc3cc2C2(c3ccc(Cl)cc3)N[C@H]3CCCC[C@@H]3N12` (some centres undefined), the TGI in test [1] is 60.2 µM; in [3], 52.7 µM; in test [4] it was 84.9 µM; in [5], 8.65 µM; in test [6], 20.3 µM; in test [12] it was 47.3 µM. The TGI in [7] was 21.3 µM; in [8], 43.8 µM; in test [9] it was 55.8 µM; in [10], 35.4 µM; in test [11] it was 49 µM.

In the case of `CC[N+]1(C)CCC(O)(c2ccc(Cl)cc2)C(C(=O)c2ccc(Cl)cc2)C1` (centres undefined), the TGI in test [1] worked out at 34.4 µM; in test [2] it was 36.3 µM; in test [3] it was 17.8 µM; in test [4], 2.71 µM; in test [5] it was 36.2 µM; in test [6], 46.8 µM. In addition, the TGI in [12] stood at 63.8 µM; in test [7] it was 78.4 µM; in test [8] it was 37.5 µM; in test [9], 25.6 µM; in [11], 43.3 µM.

For the compound `O=C1c2ccccc2CC12Cc1cc3c(cc1C2=O)CCC3` (centres undefined), the TGI in test [1], in test [2], in test [3], in test [4], in test [5] and in test [6] was > 100 µM each time. Moreover, the TGI in test [12], in [7], in [9], in [10] and in [11] was > 100 µM in each case.

Take `CCOc1ccc2c(c1)/C(=C(\C(Cl)=C(Cl)Cl)[N+](=O)[O-])N2`: the TGI in test [1], in test [2], in [3], in [4], in test [5] and in test [6] was > 100 µM each time. Besides, the TGI in [12], in test [7], in test [8], in test [10] and in [11] was > 100 µM throughout.

Take `CCC1CC2CN3CCc4c([nH]c5c(-c6c(OC)ccc7c8c([nH]c67)[C@]6(C(=O)OC)CC7CC(CC)C6N(CC8)C7)c(O)ccc45)[C@](C(=O)OC)(C2)C13` (some centres undefined): the TGI in test [1] came out at 28.4 µM; in test [2], 27.2 µM; in [3], 23 µM; in [4], 22.9 µM; in test [5], 78.2 µM; in test [6], 28.5 µM. The TGI in test [12] is 29.2 µM; in test [9], 28 µM; in test [10], 47.2 µM; in test [11], 30.9 µM.

In the case of `CC1CCCC2=C1C(c1ccc(Cl)cc1)n1c(s/c(=C\c3ccc(Cl)cc3)c1=O)=N2` (centres undefined), the TGI in [1], in test [3], in test [4], in test [5], in test [6] and in [8] was > 100 µM in each case. Also, the TGI in [9] and in test [10] was > 100 µM each time.

In the case of `CC(=O)C1=C(N=[N+]=[N-])c2cccc3cccc(c23)C1=O`, the TGI in [2] was found to be 32 µM; in test [3] it was 41.2 µM; in [4], 64.6 µM; in test [5] it was 26.5 µM; in test [6], 29.7 µM; in test [12], 56.3 µM. The TGI in [7] is 49.1 µM; in test [8] it was 39.7 µM; in [9], 30.1 µM; in [10] it was 31.4 µM; in test [11] it was 24.6 µM.

Consider `C1COC(NC(C2CC2)C2CC2)=N1`, for which the TGI in test [1], in test [2], in test [3], in test [4], in test [5] and in test [12] was > 100 µM throughout. Besides, the TGI in test [7], in [9], in [10] and in test [11] was > 100 µM each time.
